± gives the expanded uncertainty stated by the source.
How the values were obtained:
[1] = 101.33 kPa, Liquid; for viscosity: Capillary tube (Ostwald / Ubbelohde) method
[2] = φn = volume fraction of the nth substance listed; conditions: 101 kPa, Liquid

Structure (SMILES): CO [methanol]
- mass density ([1]; 298.15 K): 786.59 ± 0.61 kg/m3
- viscosity ([1]; 298.15 K): 0.5446 ± 0.0048 mPa·s
- mass density ([1]; 308.15 K): 777.28 ± 0.62 kg/m3
- viscosity ([1]; 308.15 K): 0.4747 ± 0.0043 mPa·s
- mass density ([1]; 318.15 K): 767.74 ± 0.63 kg/m3
- viscosity ([1]; 318.15 K): 0.4185 ± 0.0039 mPa·s

Structure (SMILES): CO [methanol] + O
- mass density ([2]; 298.15 K, φ1 = 0.01): 982.97 ± 0.34 kg/m3
- viscosity ([2]; 298.15 K, φ1 = 0.01): 1.084 ± 0.018 mPa·s
- mass density ([2]; 298.15 K, φ1 = 0.2): 969.63 ± 0.39 kg/m3
- viscosity ([2]; 298.15 K, φ1 = 0.2): 1.311 ± 0.021 mPa·s
- mass density ([2]; 298.15 K, φ1 = 0.3): 956.2 ± 0.44 kg/m3
- viscosity ([2]; 298.15 K, φ1 = 0.3): 1.471 ± 0.024 mPa·s
- mass density ([2]; 308.15 K, φ1 = 0.01): 979.73 ± 0.35 kg/m3
- viscosity ([2]; 308.15 K, φ1 = 0.01): 0.8665 ± 0.015 mPa·s
- mass density ([2]; 308.15 K, φ1 = 0.2): 966.32 ± 0.4 kg/m3
- viscosity ([2]; 308.15 K, φ1 = 0.2): 1.022 ± 0.017 mPa·s
- mass density ([2]; 308.15 K, φ1 = 0.3): 951.6 ± 0.45 kg/m3
- viscosity ([2]; 308.15 K, φ1 = 0.3): 1.142 ± 0.019 mPa·s
- mass density ([2]; 318.15 K, φ1 = 0.01): 976.04 ± 0.36 kg/m3
- viscosity ([2]; 318.15 K, φ1 = 0.01): 0.702 ± 0.012 mPa·s
- mass density ([2]; 318.15 K, φ1 = 0.2): 961.62 ± 0.41 kg/m3
- viscosity ([2]; 318.15 K, φ1 = 0.2): 0.8075 ± 0.014 mPa·s
- mass density ([2]; 318.15 K, φ1 = 0.3): 946.26 ± 0.46 kg/m3
- viscosity ([2]; 318.15 K, φ1 = 0.3): 0.8957 ± 0.015 mPa·s
